Patent publication US20120107417A1, “Effective Antitumor Treatments” (PHARMA MAR, S.A., priority 2000, published 2012)
pIC50: −log10 of the molar value.

What was measured:
[1] = test system: human ovarian carcinoma HOC8; assay: ET-743/DDP against orthotopically transplanted HOC8; format: in vivo; conditions: HOC8 orthotopic, peritoneal nodules with ascites; single agents
sc transplanted TE671 = assay: ET-743/DDP against sc transplanted TE671; format: in vivo, human; conditions: single drugs at MTD or combination
ovarian 1 A 9 tumor = assay: ET-743/DDP against ovarian 1A9 tumor in vivo; set-up: species or system human; conditions: single agents
From the text: The ovarian 1 A 9 tumor that is normally resistant to both ET-743 and DDP as single agents, in combination produced a tumor growth inhibition greater than 50%.

HT-1080 = assay: SRB cytotoxicity assay and Chou-Talalay combination index, HT-1080; format: cell-based, human; conditions: Homo sapiens, HT-1080, 72 h; read-out: IC50 for human soft tissue sarcoma cells, HT-1080
Protocol: (§1) Soft tissue sarcoma cell lines, HT-1080 and HS-18 were maintained as monolayer cultures in RP<I-1640 containing 10% fetal bovine serum.
(§2) Cytotoxicity to drugs was determined by SRB cytotoxicity assay carried out in 96-well microtiter plates as described. Cells were plated in duplicate wells (5000 cells/well) and exposed to drugs at different concentrations. Cells were fixed with 50% TCA solution for 1 h and 0.4% SRB (Sigma) was added to each well. After a 30 min incubation, the plate were washed with 1% acetic acid and read at 570 nm on a Biowhitaker microplate reader 2001. The wells with cells containing no drugs and with medium plus drugs but no cells were used as positive and negative controls, respectively.
(§3) Cells were seeded into 96-well plates, as described previously. Cells were treated with seven different concentrations of the single drugs or combinations mixture at 1:100 (ET-743: the other drugs) molar ratio. After 72 h exposure, growth inhibition was measured using the SRB assay.
(§4) Using the same experimental setup described above, we exposed cells to three different concentrations of drugs which represents the IC25, IC50, IC75 of ET-743, DXR, TMTX and paclitaxel, respectively. After 24 hours pre-treatment with ET743 or the combination drug, the second drugs were added to the respective wells for 48 h. Growth inhibition was determined using the SRB assay.)
(§5) The CI was calculated by the Chou-Talalay equation, which takes into account both potency (Dm or IC50) and the shape of the dose effect curve (the m value). The general equation for the classic isobologram (CI=1) is given by:
(§6) CI=(D)1/(Dx)1+(D)2/(Dx)2 (A)

UV2237/ADR = assay: ET-743/doxorubicin against mdr-resistant subline UV2237/ADR in mice; format: in vivo, murine; conditions: alone or combination
[2] = test system: murine fibrosarcoma UV2237; assay: ET-743/doxorubicin against murine fibrosarcoma UV2237 in mice; format: in vivo; conditions: alone or combination
HT-1080 cells = assay: Cell cycle analysis (propidium iodide, FACS), HT-1080; format: cell-based, human
Protocol: (§7) Exponentially growth cells were treated with or without drugs for several hours. Cells were then collected and fixed with ice-cold 70% methanol. DNA was stained with propidium iodide as described previously. Ten thousand stained cells were analyzed on a Becton Dickinson fluorescence-activated cell sorter (FACS).

HS-18 cells = assay: Cell cycle analysis (propidium iodide, FACS), HS-18; format: cell-based, human
Protocol: as §7

[3] = Biodistribution/PK of DOX with ET-743 in nude mice with tumor xenografts; format: in vivo; conditions: DOX alone vs concomitant treatment with ET-743
From the text: ET-743 has shown activity in patients with sarcoma refractory to DOX and ifosfamide. In view of its potential as an effective drug, we investigated (1) the preclinical anti-tumor activity of ET-743/DOX combination against the human rhabdomyosarcoma TE 671 and (2) possible interactions between the drugs and their biodistribution in nude mice and tumor xenografts.
The pharmacokinetic (PK) evaluation of ET-743 given alone or in combination with DOX is underway.

[4] = test system: human rabdomyosarcoma zenograft TE671; assay: ET-743/doxorubicin against TE671 xenograft in athymic (nude) mice; format: in vivo
Protocol: In vivo: Single iv treatments (ET-743, 0.1 mg/Kg; DOX, 10 mg/Kg) were administered in nude mice when xenograft tumors weighed approximately 100 mg.

TE 671 cells = assay: Clonogenic assay ET-743/DOX, TE 671; format: cell-based, human; conditions: 1 hr exposures, isobologram analysis and Combination Index
Protocol: In vitro: The effect of each drug or combination after 1 hr exposures was evaluated by clonogenic assay.

HS-18 = assay: SRB cytotoxicity assay and Chou-Talalay combination index, HS-18; format: cell-based, human; conditions: Homo sapiens, 72 h; read-out: IC50 for human soft tissue sarcoma cells, HS-18
Protocol: as §1, §2, §3, §4, §5, §6

[5] = 24 h after treatment with approximate IC50 dose
[6] = 72 h after treatment with approximate IC50 dose
[7] = single i.v. treatment at tumor approx. 100 mg, drug alone (ET-743 0.1 mg/kg; Dx 10 mg/kg)

| Structure (SMILES) | pIC50 (HT-1080) | % G1 (HT-1080 cells; [5]) | % S phase (HT-1080 cells; [5]) | % G1 (HT-1080 cells; [6]) | % S phase (HT-1080 cells; [6]) | % G2-M (HS-18 cells; [5]) | % S phase (HS-18 cells; [5]) | % G1 (HS-18 cells; [6]) | % G2-M (HS-18 cells; [6]) | % S phase (HS-18 cells; [6]) | pIC50 (HS-18) | further results |
| --- | --- | --- | --- | --- | --- | --- | --- | --- | --- | --- | --- | --- |
| N.N.[Cl][Pt][Cl] [DDP, cisplatin] | – | – | – | – | – | – | – | – | – | – | – | sensitivity of tumor to single agent [1]: partially sensitive; antitumor effect in words (sc transplanted TE671): partially sensitive; sensitivity of tumor to single agent (ovarian 1 A 9 tumor): resistant |
| COc1cccc2c1C(=O)c1c(O)c3c(c(O)c1C2=O)C[C@@](O)(C(=O)CO)C[C@@H]3O[C@H]1C[C@H](N)[C@H](O)[C@H](C)O1 [Dx, doxorubicin] | 7.60 | 36.1% | 17.5% | 46.2% | 5.3% | 25.0% | 64.9% | 1.3% | 34.9% | 63.8% | 6.65 | antitumor effect in words (UV2237/ADR): inactive or marginally active; antitumor effect in words [2]: effective; PK profile of DOX (plasma and tumor concentrations) [3]: not influenced; antitumor effect in words ([4]; TE671 in mice, alone or combination): inactive or marginally active; Log 10 Cell Kill (LCK) [4, 7]: 0.33; tumor weight inhibition (TWI) [4, 7]: 50%; anti-tumor activity / interaction in clonogenic assay (TE 671 cells): showed anti-tumor activity |
| CC(=O)O[C@H]1C(=O)[C@@]2(C)[C@H]([C@H](OC(=O)c3ccccc3)[C@]3(O)C[C@H](OC(=O)[C@H](O)[C@@H](NC(=O)c4ccccc4)c4ccccc4)C(C)=C1C3(C)C)[C@]1(OC(C)=O)CO[C@@H]1C[C@@H]2O [Paclitaxel] | 8.89 | 45.4% | 37.3% | 86.0% | 9.0% | 15.5% | 52.5% | 23.5% | 26.2% | 58.7% | 8.00 | % G2-M (HT-1080 cells; [5]): 17.3%; % G2-M (HT-1080 cells; [6]): 5.0%; % G1 (HS-18 cells; [5]): 32.8% |
